Assay results from patent publication US20100087534A1, “Use of a Photosensitizing Agent in the Treatment or Prevention of an Inflammation-Associated Disorder in the Gastrointestinal Tract of a Mammal” (priority 2005, published 2010).

Legend:
[1] = test system: SCID mice with colitis induced by transfer of CD4+CD45RBhigh T-cells; test: PDT in CD4+CD45RBhigh transfer colitis, clinical and endoscopic follow-up (Example 1); format: in vivo
Method: b) A rigid mini-endoscope Hopkins I (vision direct 0°, length 10 cm, diameter 1.9 mm, Anklin, Binningen, Switzerland) with a 9 Charrière (Ch) tube and a channel for instrumentation (Flexible biopsy forceps Ch 3, 53 cm length) coupled on the Coloview Basic equipment (light source Xenon 175 and Endovision Telecam SLB; Storz Inc, Tuttlingen, Germany) and the home made air inflation system (see above). […] First the colonoscopy technique was optimised in 10 wild type BALB/c mice and 10 SCID mice, which were colonoscoped repeatedly (3 times within a 2 weeks time period). Afterwards the accuracy of colonoscopy in diagnosis colitis was evaluated in BALB/c mice with sodium dextran sulfate (DSS) induced colitis and in SCID mice with colitis induced by transfer of a subpopulation of CD4+CD45RBhigh T-cells. For this purpose the mice were colonoscoped at diverse time points after onset of DSS administration or T-cell transfer and the endosocpic image was compared with the endoscopic image of normal mice and the histology after sacrificing the mice.
To induce CD4+ CD45RBhigh transfer colitis, T cells used for the adoptive transfer of the SCID mice were obtained from the spleens of six weeks old wild type BALB/c mice that were housed under specific pathogen-free (SPF) conditions at our animal care facility. Mice were sacrificed by cervical dislocation under anesthesia and spleen were recovered and kept in cold RPMI 1640 medium complemented with a final concentration of 2% fetal calf serum (FCS) until processing. The tissue was forced through 70 μm and 40 μm nylon meshes and washed. Spleen cells were then centrifugated and the pellet was resuspended in 5 ml of cold medium for counting. The cellular preparation was then enriched in CD4+ cells by magnetic cell sorting using CD4 (L3T4) MACS microbeads (Miltenyi Biotec, Gladbach, Germany). The enriched cells were then stained using fluorescein isothiocynate (FITC)-conjugated anti-CD4 and phyoerythrin (PE)—conjugated anti-CD45RB monoclonal antibodies (BD, Biosciences Pharmingen, San Diego, USA). CD4+CD45RB high cells were sorted by FACS, resuspended in PBS at the concentration of 10^6 cells/ml and finally 10^5 cells were injected intravenously under sterile conditions into 4-6 weeks old SCID mice.
Colonoscopy could safely be performed in normal BALB/c mice and SCID mice. The mouse colon could be intubated up to the right flexure. The length of the accessible mouse colon was approximately 4 cm with the rectum comprised. In DSS induced colitis a correlation between colitis and weight loss was observed, whereas in SCID mice with colitis after CD4+CD45RB^high T-cell transfer, endoscopic signs of colitis developed earlier as weight loss and the correlation between endoscopic signs of colitis and weight loss was less good. The colitis in DSS mice was segmental, the rectum was always spared, erythema, ulcerations, changes of the normal vascular pattern could be observed. […] Furthermore, since the length of the accessible mouse colon was only about 4 cm, they changed their scoring system concerning the length.

[2] = test system: IFN-γ; test: Expression index of IFN-γ mRNA in illuminated colon, quantitative real-time PCR; format: in vivo, BALB/c mice
Text: (§1) The third portion was used for measuring the expression of the molecules involved in immune and inflammatory phenomenons in the colonic mucosa (cytokines, chemokines). For RNA extraction this portion was conserved in RNA-later solution (Ambion Inc. Austin, USA) until processing. RNA was extracted from the tissues using a Rneasy Mini kit (Qiagen, Hombrechtikon, Switzerland). RNA samples were submitted to a second or third DNAse treatment in order to get rid of all traces of genomic DNA. Quality of the RNA samples was tested on agarose gels and absence of genomic DNA was tested by PCR using primers specific for a house keeping gene, glyceraldehydes-3-phosphate-dehydrogenase (GAPDH). RNA preparations were then submitted to reverse transcription using the ThermoScript™ RT-PCR system (Invitrogen, Basel, Switzerland) using an Oligo-dT as primer. Quantification of reverse transcripted messenger RNA for GAPDH, the inducible nitric oxide synthetase (iNOS), interferon-gamma (IFN-γ), interleukin-1 receptor antagonist (IL1-Ra), tumor necrosis factor alpha (TNF-α), interleukin 6 (IL-6), tumor growth factor beta (TGF-13) and interleukin10 (IL-10) was performed by quantitative real-time PCR in a BioRad Real-time PCR iCycler using specific pairs of primers and the green fluorescence dye SYBR—Green®. GAPDH was used to normalize quantifications within each individual sample (normalization of the number of mRNA copies for the gene of interest/1 million mRNA copies of the GAPDH gene of the investigated mouse). Expression of each gene of interest was finally calculated as an expression index (normalized number of mRNA copies of each manipulated mice/normalized number of mRNA copies of the unmanipulated mice) and the results are given as mean values of the expression index (unmanipulated mean mice index=1). Furthermore one kidney and a part of the liver were collected for pathological analysis to exclude hepato- or nephrotoxicity.

[3] = test system: CD4+ cells in the colonic mucosa; test: Anti-CD4 immunostaining of treated colonic mucosa; format: in vivo, SCID mice; details: low dose PDT, 3 days after PDT, compared to DC mice
Method: PDT was performed with a photosensitizing agent (δ-ALA) dose of 15 mg/kg, administered 3 hours before the illumination with the energy dose of 10 J/cm^2 per gastrointestinal tract tissue.
Mice were monitored by colonoscopy at day 3 and weeks 1, 2, 3 and 4 post PDT treatment. In addition to parameters investigated in example 1, CD4 immunostaining and apoptosis detection were performed.
For anti-CD4 immunostaining, frozen sections were extensively dried, fixed with 100% acetone at 4° C. and rehydrated in PBS. Sections were then blocked for 20 minutes with a PBS solution containing 0.1% BSA (Sigma-Aldrich Inc., St-Louis, USA) and 0.5% NMS. CD4 detection was performed by incubation of the sections for 1 hour with a cell culture supernatant originating from an hybridoma secreting rat anti-mouse CD4 (clone H129.19). After washing with PBS, an Alexa Fluor 488-conjugated goat anti-rat IgG at a final concentration of 5 ng/ml in PBS 0.1% BSA, 1% NMS was used as secondary antibody and incubated for 45 minutes before two last PBS washings. All incubations were done at room temperature unless specified otherwise.

[4] = test system: iNOS; test: Expression index of iNOS mRNA in illuminated colon, quantitative real-time PCR; format: in vivo, BALB/c mice; details: high dose PDT: 50 J/cm^2, 60 mg δ-ALA; 74 h; unmanipulated mice index=1
Text: as §1, with “RNA preparations were then submitted to reverse transcription using the ThermoScript™ RT-PCR system (Invitrogen, Basel, Switzerland) using an Oligo-dT as primer.” left out, “Expression of each gene of interest was finally calculated as an expression index (normalized number of mRNA copies of each manipulated mice/normalized number of mRNA copies of the unmanipulated mice) and the results are given as mean values of the expression index (unmanipulated mean mice index=1). Furthermore one kidney and a part of the liver were collected for pathological analysis to exclude hepato- or nephrotoxicity.” left out

[5] = test system: IL-1Ra; test: Expression index of IL-1Ra mRNA in illuminated colon, quantitative real-time PCR; format: in vivo, BALB/c mice
Text: as §1

[6] = of the 4 mice which developed signs of severe disease
[7] = high dose PDT: 50 J/cm^2, 60 mg δ-ALA, 74 h, unmanipulated mice index=1
[8] = low dose PDT 15 mg/kg δ-ALA, 10 J/cm2
[9] = low dose PDT 5J/cm2, 15 mg/kg δ-ALA

In the case of `NCC(=O)CCC(=O)O` [δ-ALA, 5-aminolevulinic acid], the “signs of photosensitivity or damage of the mucosa” value ([1]; any of the animals) is reported as “No signs of photosensitivity or damage of the mucosa was observed”, the “endoscopic severity index after PDT” value ([1]; mice that could be followed up by colonoscopy) is reported as “improved significantly” and the “mice cured by PDT” value [1, 6] is reported as 2 mice. The “mice with improved clinical signs after PDT” value [1, 6] was “one”, the “mice without clinical response” value ([1]; one of the 4 mice which developed signs of severe disease) was 25% and the “expression index IFN-γ” value [2, 7] was 5.36±1.67. The “expression index IFN-γ” value [2, 8] was 0.93±0.09, the “expression index IFN-γ” value [2, 9] was 1.92±0.50 and the “number of CD4+ cells in the treated colonic mucosa” value [3] was “obvious diminution in the number of CD4^+ cells”. The “expression index iNOS” value [4] was 27.78±10.47, the “expression index IL-1Ra” value [5, 7] was 4.54±1.21 and the “expression index IL-1Ra” value [5, 8] was 0.94±0.08. For the same molecule, the “expression index IL-1Ra” value [5, 9] was 1.14±0.11.
